In EP0408782A1, “Antihypoxic agent” (NAUCHNOISSLEDOVATELSKI CHIMIKOPHARMATZEVTICHEN INSTITUT, priority 1989, dated 1991):
Read-outs that look alike come from different tables or passages of the source.

What was measured:
mice [1] = test: hypobaric hypoxia in mice (survival time in decompression chamber, 210 mmHg); type: in vivo, white mice line H; settings: 1 hour before the hypoxia
Procedure: EXAMPLE 1: Pharmacological study: Cerebro-protective anti-hypoxic effect using the method "hypobaric hypoxia" in mice. The experiments are carried out on white mice line H (18-22 g) in groups of 8 animals. […] The survival time (in seconds) from the beginning of the hypoxia till the death of the animals was measured. The results were calculated as a percentage towards the control group. […]

mice [2] = test: complete ischaemia by decapitation in mice (duration of respiratory movements of the isolated head); type: in vivo, white mice line H; settings: 1 hour before
Procedure: Example 2. Pharmacological study of the cerebro-protective anti-ischaemic effect using the method of"complete ischaemia by decapitation" in mice. The experiments are carried out on white mice line H (18-22g) in groups of 8 animals. Complete […] caused by means of a decapitation of the animals using the method of Hollowach-Thurston et al.(9). The duration of the respiratory movements of the isolated head (in seconds) was measured. The results are calculated as a percentage towards the control group. […]

mice [3] = settings: mouse, in vivo
in vivo = settings: mouse

Structure (SMILES) | Increase of the resistancy towards hypoxia (% towards the control group) (mice [1]; 10 mg/kg intraperitoneally) | Increase of the resistance towards ischaemia (% towards the control group) (mice [2]; 10 mg/kg intraperitoneally) | LD₅₀ (mice [3]; ip) | LD₅₀ (mice [3]; po) | LD50 (in vivo; ip) | LD50 (in vivo; po) | Increase of the resistancy towards hypoxia (% towards the control group) (mice [1]; 1600 mg/kg intraperitoneally) | Increase of the resistance towards ischaemia (% towards the control group) (mice [2]; 1600 mg/kg intraperitoneally)
Fc1ccc(C(c2ccc(F)cc2)N2CCN(C/C=C/c3ccccc3)CC2)cc1 [Flunarizine] | 11,7% | 42,8% | 204/158+264/ mg/kg | 232/182+295/ mg/kg | 204 mg/kg | 232 mg/kg |  | 
NC(=O)CN1CCCC1=O [Piracetam, 2-oxo-1-pyrrolidineacetamide] |  |  |  |  | 8000 mg/kg | 8000 mg/kg | 22,8% | 27,9%
